Measured values published in US8545876B1, “Modified drugs for use in liposomal nanoparticles” (The University of British Columbia, priority 2008, dated 2013).
Where two headings read alike, the source gives them in different places.

Tests used:
[1] = Stability in mouse plasma; format: in vitro ADME; conditions: 24 hour incubation in mouse plasma, 37° C.
Method: (§1) The chemical stability of the docetaxel derivatives was determined in aqueous solutions at different pH values and temperatures, and in biological media (mouse plasma). Aliquots of the docetaxel derivatives in acetonitrile were mixed with buffered citrate/HEPES (10 mM/10 mM) solutions at pH 4.0 and 7.5, or in mouse plasma in 1 mL glass HPLC sample vials sealed with Teflon-lined caps (final volume 0.25 ml, final docetaxel derivative concentration 50 µg/ml). Drug stability was determined 1, 4 and 24 hrs after incubation at 37° C. by UPLC-UV. At the indicated time points, a 3-fold excess of methanol/0.1% TFA was added to the sample. Citrate/HEPES buffered samples were analyzed by UHPLC as described above. For plasma samples, proteins precipitated by the addition of methanol/0.1% TFA pelleted by centrifugation at 14,000×g and supernatants were analyzed for the drug derivatives. Heparanized mouse plasma was diluted to 50% with 100 mM sodium-phosphate buffer to keep the pH constant throughout the experiment.
(§2) To be suitable for formulation in LN, derivatives must be stable at pH 4 (the pH present inside the LN carrier). In addition, prodrug derivatives should readily form the active drug under physiological conditions (e.g., at pH 7.4 and/or in the presence of endogenous enzymes) once released from the LN. […] TD1-3 and TD7 were selected for loading into LN and testing of such LN for drug release in vitro.

[2] = mouse, in vivo, iv, 20 mg/kg
Text: The pharmacokinetics (PK) of LN-encapsulated docetaxel derivatives were compared to the PK of Taxotere™, the commercial docetaxel formulation, and derivatives formulated in the same manner as Taxotere™. Taxotere™ and similarly formulated derivatives were formulated as described in the prescribing information for Taxotere™ (Sanofi-Aventis, U.S.) using ethanol/polysorbate 80/physiological saline solution to dissolve the drug. The docetaxel derivative was encapsulated in DSPC/chol, DPPC/Chol and DMPC/Chol LN (55:45 mol %) at a drug-to-lipid ratio of 0.2 wt/wt using the ammonium sulfate loading technique. The lipid components contained trace amounts (0.15 μCi/mg lipid) of the lipid marker [^3H]CHE, allowing monitoring of the elimination of both the prodrug and the LN carrier from circulation.
The PK and in vivo release studies were based on 4 time points (1, 4, 8 and 16 hrs) and 4 mice per time point. […] The methanolic solutions were centrifuged for 30 min at 15,000×g at 4° C. to pellet the proteins and the supernatant was analyzed for docetaxel and drug derivatives by UHPLC. For LN formulations, 25-50 μl of plasma was added to scintillation fluid (PicoFluor 40, Perkin Elmer) and analyzed for lipid levels ([^3H]-CHE radioactivity) by scintillation counting.

[3] = tested on: ovarian cancer cell line ES-2; test: In vitro cytotoxicity, Alamar Blue assay; format: cell-based; conditions: Homo sapiens; ES-2, 72-h drug exposure
Method: (§3) Anticancer activity was evaluated against a panel of 3 human cancer cell lines, including the ovarian cancer cell line ES-2, the prostate cancer cell line PC3 and the breast cancer cell line MDA435/LCC6 (BC Cancer Research Centre, Vancouver, BC) (Fields and Lancaster, Am. Biotechnol. Lab., 11:48-50 (1993); Nakayama et al., J. Immunol. Methods, 204:205-208 (1997)). Cytotoxicity was determined using the Alamar Blue assay after a 72-h drug exposure period. […] The plates were returned to the incubator for 4 h; sample fluorescence was determined at λex=530 nm and λem=590 nm. Viability was calculated according to: Cell viability (%)=(Fplus drug−Fbackground)/(Fminus drug−Fbackground)*100, where Fplus drug is the fluorescence reading in the presence of drug, Fminus drug the cell control in the absence of drug and Fbackground the background fluorescence (media alone).

[4] = tested on: prostate cancer cell line PC3; test: In vitro cytotoxicity, Alamar Blue assay; format: cell-based; conditions: Homo sapiens; PC-3, 72-h drug exposure
Method: as §3

[5] = tested on: breast cancer cell line MDA435/LCC6; test: In vitro cytotoxicity, Alamar Blue assay; format: cell-based; conditions: Homo sapiens; MDA-MB-435/LCC6, 72-h drug exposure
Method: as §3

[6] = Single dose tolerability (MTD) study; format: in vivo, SCID/Rag2-M mice; conditions: for MTD at 14 days: SCID/Rag2-M, mouse, in vivo, iv, single dose i.v.
Method: Tolerability studies were aimed at establishing the maximum tolerated dose (MTD) and the dose range for use in efficacy studies (efficacy studies were based on a single i.v. injection). […] The studies were based on administration of a single dose and relied on 3 mice/group and a dose escalation strategy based on three dose levels for the derivative and Taxotere and five dose levels for the LN formulations (DSPC/Chol 55:45 mol % at a prodrug/lipid weight ratio of 0.2 mg/mg). All formulations were injected i.v. via the lateral tail vein in a volume of 200 μl/20 g mouse.
Mice were monitored daily for signs of toxicity over a period of 14 days following drug administration. Tolerability was assessed by changes in body weight as well as behavioral parameters. […] Body weights of individual mice were measured every second day over the course of the study. If weight loss was not a good predictor of tolerability, the dose where no animals needed to be terminated due to toxicity was used.

[7] = Chemical (hydrolytic) stability in buffered aqueous solutions; format: physicochemical
Method: as §1, §2

[8] = Chemical (hydrolytic) stability in buffered aqueous solutions; format: physicochemical; conditions: 24 hour incubation in pH 7.4 buffer, 37° C.
A431 tumors = test: In vivo kinetics and anticancer activity of vincristine formulations; set-up: species or system SCID mice; conditions: 2 mg/kg i.v.
Method: FIG. 9. In vivo kinetics and anticancer activity of free vincristine (VCR) (2 mg/kg) and vincristine (2 mg/kg) encapsulated in 100 nm egg sphingomyelin/cholesterol LN injected i.v. in SCID mice bearing A431 tumors. (8A) Concentration profile of free VCR (□) and LN formulated VCR (●) in blood plasma over time. […] (8B) Release of free VCR (●) from LN formulations (% retention) over time. […] (8C) Tumor concentration ([…]) of VCR over time after administration of free VCR (□) and LN formulated VCR (●). […] (8D) Anticancer activity of free VCR (1) and LN formulated VCR (●) relative to saline control (▪). […] Nano-liposomal formulations increase the amount of drug reaching sites of tumor growth and prolongs the duration of exposure to therapeutically active levels of drug, resulting in increased antitumor activity.

| Compound | Prodrug levels (% remaining), Plasma [1] | time by which plasma concentrations were below detectable levels ([2]; Swiss Webster) | plasma circulation half-lives [2] | IC50 [3] | IC50 [4] | IC50 [5] | MTD at 14 days ([6]; docetaxel equivalents, read-out: MTD) | MTD at 14 days ([6]; mg/kg prodrug, read-out: MTD expressed as prodrug) | Clin. Observations ([6]; docetaxel equivalent dose 20 mg/kg, 20 mg/kg) | Clin. Observations ([6]; docetaxel equivalent dose 20 mg/kg, listed as Derivative, 20 mg/kg) | DRD (drug-related death) ([6]; dose 16 mg/kg) | DRD (drug-related death) ([6]; dose 20 mg/kg) | Clin. Observations ([6]; dose 24 mg/kg) | DRD (drug-related death) ([6]; dose 24 mg/kg) | Prodrug levels (% remaining), pH 4 ([7]; 24 hour incubation in pH 4 buffer, 37° C.) | half-life at 50 g/ml ([7]; citrate/HEPES (10 mM/10 mM) buffered aqueous solution, pH 4, read-out: hydrolysis half-life (converted)) | pKa (physchem) | Prodrug levels (% remaining), pH 7.4 [8] | concentration profile in blood plasma over time (A431 tumors) |
| --- | --- | --- | --- | --- | --- | --- | --- | --- | --- | --- | --- | --- | --- | --- | --- | --- | --- | --- | --- |
| CC(=O)O[C@@]12CO[C@@H]1C[C@H](O)[C@@]1(C)C(=O)[C@H](O)C3=C(C)[C@@H](OC(=O)[C@H](OC(=O)CCCN4CCN(C)CC4)[C@@H](NC(=O)OC(C)(C)C)c4ccccc4)C[C@@](O)([C@@H](OC(=O)c4ccccc4)C12)C3(C)C (stereo partly shown) [TD1, 2′-O-(N-methyl-piperazinylbutanoic acid ester) derivative of docetaxel] | 12% | ≤ 2 h | minutes | 0.1 nM | 0.5 nM | < 0.1 nM | 16 mg/kg | 20 mg/kg | acute toxicity (lethality) | Acute toxicity | 0/3 | 1/1 | Acute toxicity | 3/3 | 94% | ~49 days | 7.7 | 23% |  |
| CC[C@]1(O)C[C@H]2CN(CCc3c([nH]c4ccccc34)[C@@](C(=O)OC)(c3cc4c(cc3OC)N(C=O)[C@H]3[C@@](O)(C(=O)OC)[C@H](OC(C)=O)[C@]5(CC)C=CCN6CC[C@]43[C@@H]65)C2)C1 [free VCR, vincristine] |  |  |  |  |  |  |  |  |  |  |  |  |  |  |  |  |  |  | rapidly removed from circulation |
